Literature values, collected in publication PMC9329312, “Decoding kinase-adverse event associations for small molecule kinase inhibitors” (Nature Communications, 2022).
Where two headings read alike, the source gives them in different places.

Conditions: ref FAERS

CCOc1cc2ncc(C#N)c(Nc3ccc(OCc4ccccn4)c(Cl)c3)c2cc1NC(=O)/C=C/CN(C)C [neratinib]
Pyrexia, % of Cases: 1.4%
Quality of life decreased, % of Cases: 0.075%
Radiation injury, % of Cases: 0.075%
Rash erythematous, % of Cases: 0.3%
Rash macular, % of Cases: 0.075%
Rash papular, % of Cases: 0.075%
Rash pruritic, % of Cases: 0.3%
Rash pustular, % of Cases: 0.225%
Rash vesicular, % of Cases: 0.075%
Rash, % of Cases: 5.0%
Raynaud's phenomenon, % of Cases: 0.075%
Recall phenomenon, % of Cases: 0.075%
Rectal haemorrhage, % of Cases: 0.5%
Recurrent cancer, % of Cases: 0.075%
Red blood cell count decreased, % of Cases: 0.225%
Red blood cell sedimentation rate increased, % of Cases: 0.075%
Reflux laryngitis, % of Cases: 0.15%
Refraction disorder, % of Cases: 0.075%
Renal disorder, % of Cases: 0.45%
Renal failure, % of Cases: 0.6%
Renal function test abnormal, % of Cases: 0.15%
Renal impairment, % of Cases: 0.8%
Renal mass, % of Cases: 0.075%
Respiratory arrest, % of Cases: 0.075%
Respiratory failure, % of Cases: 0.15%
Restless legs syndrome, % of Cases: 0.075%
Retching, % of Cases: 0.3%
Retinal artery occlusion, % of Cases: 0.075%
Retinal tear, % of Cases: 0.075%
Rhinorrhoea, % of Cases: 0.75%
Road traffic accident, % of Cases: 0.075%
Rubber sensitivity, % of Cases: 0.075%
Saliva altered, % of Cases: 0.075%
Salivary gland cancer, % of Cases: 0.15%
Salpingectomy, % of Cases: 0.075%
Salpingo-oophorectomy bilateral, % of Cases: 0.075%
Scab, % of Cases: 0.075%
Seasonal allergy, % of Cases: 0.075%
Seizure, % of Cases: 0.225%
Sensation of foreign body, % of Cases: 0.15%
Seroma, % of Cases: 0.075%
Sinus disorder, % of Cases: 0.075%
Sinus headache, % of Cases: 0.075%
Sinus tachycardia, % of Cases: 0.075%
Sinusitis, % of Cases: 0.15%
Sjogren's syndrome, % of Cases: 0.075%
Skin atrophy, % of Cases: 0.075%
Skin burning sensation, % of Cases: 0.075%
Skin discolouration, % of Cases: 0.225%
Skin disorder, % of Cases: 0.075%
Skin erosion, % of Cases: 0.075%
Skin exfoliation, % of Cases: 0.8%
Skin fissures, % of Cases: 0.9%
Skin haemorrhage, % of Cases: 0.075%
Skin irritation, % of Cases: 0.075%
Skin odour abnormal, % of Cases: 0.075%
Skin reaction, % of Cases: 0.075%
Skin ulcer, % of Cases: 0.075%
Sleep disorder, % of Cases: 0.15%
Slow speech, % of Cases: 0.075%
Sluggishness, % of Cases: 0.075%
Small intestine adenocarcinoma, % of Cases: 0.075%
Sneezing, % of Cases: 0.225%
Snoring, % of Cases: 0.075%
Somnolence, % of Cases: 1.5%
Spinal pain, % of Cases: 0.075%
Sputum retention, % of Cases: 0.075%
Staphylococcal infection, % of Cases: 0.075%
Stomatitis, % of Cases: 2.0%
Stress fracture, % of Cases: 0.075%
Stress, % of Cases: 0.3%
Subclavian vein thrombosis, % of Cases: 0.075%
Sunburn, % of Cases: 0.075%
Surgery, % of Cases: 0.6%
Swelling face, % of Cases: 0.225%
Swelling, % of Cases: 0.15%
Swollen tongue, % of Cases: 0.15%
Syncope, % of Cases: 0.15%
Tachycardia, % of Cases: 0.225%
Taste disorder, % of Cases: 1.2%
Temporomandibular joint syndrome, % of Cases: 0.075%
Tenderness, % of Cases: 0.075%
Tension headache, % of Cases: 0.075%
Therapeutic product ineffective for unapproved indication, % of Cases: 0.075%
Therapy cessation, % of Cases: 0.375%
Therapy change, % of Cases: 0.225%
Therapy interrupted, % of Cases: 0.15%
Thirst, % of Cases: 0.375%
Throat irritation, % of Cases: 0.075%
Throat tightness, % of Cases: 0.075%
Thrombocytopenia, % of Cases: 0.075%
Thrombosis, % of Cases: 0.225%
Thyroid cancer, % of Cases: 0.075%
Thyroid mass, % of Cases: 0.075%
Tongue discolouration, % of Cases: 0.075%
Tongue discomfort, % of Cases: 0.075%
Tongue erythema, % of Cases: 0.15%
Tooth extraction, % of Cases: 0.075%
Tooth fracture, % of Cases: 0.075%
Tooth injury, % of Cases: 0.075%
Toothache, % of Cases: 0.15%
Toxicity to various agents, % of Cases: 0.075%
Tracheal disorder, % of Cases: 0.075%
Transaminases increased, % of Cases: 0.075%
Transient ischaemic attack, % of Cases: 0.075%
Transitional cell carcinoma metastatic, % of Cases: 0.075%
Treatment noncompliance, % of Cases: 0.075%
Tremor, % of Cases: 0.375%
Trichorrhexis, % of Cases: 0.075%
Tumour flare, % of Cases: 0.075%
Tumour marker increased, % of Cases: 0.075%
Tumour pain, % of Cases: 0.075%
Tumour ulceration, % of Cases: 0.075%
Underdose, % of Cases: 2.6%
Upper limb fracture, % of Cases: 0.075%
Upper respiratory tract infection, % of Cases: 0.375%
Upper-airway cough syndrome, % of Cases: 0.075%
Urinary retention, % of Cases: 0.075%
Urinary tract discomfort, % of Cases: 0.075%
Urinary tract infection, % of Cases: 2.1%
Urine analysis abnormal, % of Cases: 0.075%
Urine odour abnormal, % of Cases: 0.075%
Urticaria, % of Cases: 0.375%
Uterine cancer, % of Cases: 0.075%
Uterine leiomyoma, % of Cases: 0.075%
Vaginal discharge, % of Cases: 0.075%
Vaginal haemorrhage, % of Cases: 0.225%
Venous pressure jugular increased, % of Cases: 0.075%
Vertigo positional, % of Cases: 0.075%
Vertigo, % of Cases: 0.075%
Viral infection, % of Cases: 0.15%
Vision blurred, % of Cases: 0.375%
Visual impairment, % of Cases: 0.225%
Vitamin D decreased, % of Cases: 0.075%
Vitiligo, % of Cases: 0.075%
Vitreous floaters, % of Cases: 0.075%
Volume blood decreased, % of Cases: 0.075%
Vomiting projectile, % of Cases: 0.075%
Vomiting, % of Cases: 13.8%
Vulvovaginal burning sensation, % of Cases: 0.075%
Vulvovaginal dryness, % of Cases: 0.075%
Vulvovaginal pain, % of Cases: 0.075%
Vulvovaginal pruritus, % of Cases: 0.15%
Weight decreased, % of Cases: 4.9%
Weight fluctuation, % of Cases: 0.075%
Weight increased, % of Cases: 0.3%
White blood cell count decreased, % of Cases: 0.7%
White blood cell count increased, % of Cases: 0.15%
Wound haemorrhage, % of Cases: 0.075%
Wound, % of Cases: 0.075%
Wrist fracture, % of Cases: 0.075%
Wrong technique in product usage process, % of Cases: 0.075%
Xeroderma, % of Cases: 0.075%
Abdominal discomfort, % of Cases (listed as Neratinib): 4.80%
Abdominal pain upper, % of Cases (listed as Neratinib): 6.00%
Abdominal pain, % of Cases (listed as Neratinib): 6.20%
Constipation, % of Cases (listed as Neratinib): 15.50%
Death, % of Cases (listed as Neratinib): 9.60%
Decreased appetite, % of Cases (listed as Neratinib): 11.90%
Dehydration, % of Cases (listed as Neratinib): 6.60%
Diarrhoea, % of Cases (listed as Neratinib): 61.80%
Dizziness, % of Cases (listed as Neratinib): 4.60%
Dyspepsia, % of Cases (listed as Neratinib): 4.40%
Fatigue, % of Cases (listed as Neratinib): 25.20%
Headache, % of Cases (listed as Neratinib): 5.40%
Hospitalisation, % of Cases (listed as Neratinib): 5.30%
Muscle spasms, % of Cases (listed as Neratinib): 4.20%
Nausea, % of Cases (listed as Neratinib): 29.70%
Off label use, % of Cases (listed as Neratinib): 11.60%
Product dose omission issue, % of Cases (listed as Neratinib): 7.80%
Rash, % of Cases (listed as Neratinib): 5.00%
Vomiting, % of Cases (listed as Neratinib): 13.80%
Weight decreased, % of Cases (listed as Neratinib): 4.90%
